Results published in US6203822A, “Gallium-containing compounds for the treatment of infections caused by intracellular pathogens and pathogens causing chronic pulmonary infection” (priority 1996, dated 2001).

What was measured:
Assay type in all cases: cell-based
[1] = test system: M. tuberculosis in human alveolar macrophages; experiment: M. tuberculosis in human alveolar macrophages, gallium nitrate with or without anti-tuberculous antibiotics
Experimental: The gallium-containing compounds can also be tested for their ability to inhibit intracellular pathogens in tissue culture assays. In general, in these assays, the macrophages are placed in culture and incubated with the intracellular pathogen at an approximate cell to pathogen ratio of preferably at least 1:1 to about 1:5 cells:pathogen. Exemplary culture conditions are provided in the assays detailed in the Examples. For assays assessing M. tuberculosis infection, freshly adherent monocytes, 12 day-old adherent MDMs, or freshly adherent alveolar macrophages are incubated with M. tuberculosis, MAI or other intracellular bacteria at a ratio of about 1:1 to about 1:5 (phagocyte:bacterium). For M. tuberculosis or MAI, the bacteria are incubated with the phagocyte for 2 hr at 37° C. in RPMI/HEPES media with 2.5% serum or human serum albumin (serum-free). The cells are washed to remove non-adherent bacteria and monolayers are replated with RPMI containing 1% autologous serum (to maintain phagocyte viability but not to sustain extracellular growth of bacteria). Gallium-containing compounds, such as gallium nitrate, with, or without, other agents such as antibiotics, cytokines etc., are added about 24 hr. later and mycobacterial growth in cell lysates is then assessed over the next several days either by the radiometric BACTEC system or by colony-forming units on agarose plates. In each experiment, growth is assessed relative to control monolayers where no drug has been added.
Human alveolar macrophages were purified from healthy non-smoking adult volunteers and placed in monolayer culture. M. tuberculosis infected cells were treated with gallium nitrate as described in Example 2. Antituberculous antibiotics were added to wells alone or with gallium nitrate at 500 μM 24 h after M. tuberculosis infection. Antituberculous antibiotics tested included streptomycin (2.016 μg/ml), isoniazid (0.1 μg/ml), rifampin (2.0 μg/ml), and ethambutol (2.52 μg/ml) and the combination of antibiotics was denoted as SIRE. Antibiotics were obtained in lyophilized form from BACTEC. The antibiotics were reconstituted in sterile water per package instructions. With reference to FIG. 3, SIRE refers to combinations of streptomycin, isoniazid, rifampin and ethambutol while IR refers to combinations of Isoniazid and rifampin.
Infected macrophages were cultured for 24 h, 48 h, or 120 h. Growth index readings of combined supernatants and cell lysates were measured in the BACTEC 460 TB system. […] Since these antibiotics have a number of unpleasant side effects that are reduced at reduced concentrations of the drugs, combined therapies that permit these antibiotics to be administered at lower doses when combined with gallium nitrate is significant and may help to promote better drug compliance in patients infected with M. tuberculosis.

[2] = test system: M. tuberculosis; experiment: Regrowth of M. tuberculosis in BACTEC system after gallium nitrate treatment (kill versus stasis)
Experimental: Example 4 and Example 5 detail exemplary methods used to determine whether the mycobacteria strains were killed by the addition of gallium nitrate. […] The bacteria were resuspended in 7H9 broth (BBL Microbiology Systems) or onto agar plates without gallium nitrate and incubated under conditions known to promote bacterial growth. In Example 4, the growth index for these cultures was assessed after 6 weeks to determine whether bacteria are inhibited or killed. […] In Example 5, M. tuberculosis-infected macrophages cell lysates were plated onto the surface of media able to support M. tuberculosis growth. Colony forming unit assays were counted to assess bacterial death or inhibition.
In Examples 2 and 3, gallium nitrate inhibited growth of M. tuberculosis. To determine whether the mycobacteria strains were killed by gallium nitrate or whether various concentrations of gallium nitrate were bacteriostatic, samples from the assay were tested in the BACTEC system. […] The bacteria, if present, was resuspended in 7H9 broth without gallium nitrate and incubated in the BACTEC system under conditions known in the art to promote bacterial growth.

[3] = test system: P. aeruginosa strain PA01; experiment: Growth inhibition of P. aeruginosa in iron-supplemented succinate medium; settings: for A600 (growth): 1 μM ferric chloride, 7 h, control A600=0.297
Experimental: In another embodiment of this invention, P. aeruginosa, the principle cause of chronic lung infections in patients with cystic fibrosis, was also determined to be susceptible to gallium-containing compounds. The PA01 strain of P. aeruginosa only grew in an iron-restricted succinate based broth medium (Cox, CD. Infect. Immun. 52:263-270, 1986) that included exogenous Ferric chloride or iron chelated to either of the siderophores pyochelin or pyoverdin at concentrations of 1 μM or greater. The addition of gallium nitrate to the iron supplemented medium inhibited P. aeruginosa growth (see Example 15). Growth was measure by monitoring the culture medium absorbance at 600 nm.
P. aeruginosa strain PA01 was suspended in succinate-based medium (Cox, C. D., Infect. Immun. 52:262-270, 1986) to an optical density of approximately 0.040 at 600 nm in the absence (negative control) or presence of 1 μM ferric chloride (positive growth control). To some aliquots of both positive and negative control conditions, gallium nitrate was added at varying concentrations. The bacterial suspensions were placed at 37° C. for 7 h and growth was determined by measuring absorbance at 600 nm. […] With the inclusion of ferric chloride the concentration of organisms increased nearly eight fold A600=0.297).

## O=[N+]([O-])[O-].O=[N+]([O-])[O-].O=[N+]([O-])[O-].[Ga+3] [gallium nitrate]
[1]; gallium nitrate 500 μM plus suboptimal antibiotics (1/10 the standard concentrations), human alveolar macrophages
  augmentation of growth inhibition by antibiotics: augments the ability of suboptimal concentrations of antibiotics
[1]; suboptimal streptomycin, isoniazid, rifampin and ethambutol or suboptimal Isoniazid and rifampin
  enhancement of antibiotic growth inhibition: clear-cut enhancement in inhibition of M. tuberculosis growth
[2]; growth index assessed after 6 weeks
  killing of bacteria (growth index after 6 weeks): the bacteria were killed
[2]; resuspended in 7H9 broth without gallium nitrate, BACTEC
  bacterial regrowth after gallium nitrate treatment: bacteria did not grow
[3]; 1 μM gallium nitrate
  growth inhibition in words: Slight inhibition
  A600 (growth): 0.270
[3]; 10 μM gallium nitrate
  decrease of growth: more than 50%
  A600 (growth): 0.130
[3]; 100 μM and 10 μM gallium nitrate, ferric chloride supplemented
  P. aeruginosa growth inhibition: Significant inhibition
[3]; 100 μM gallium nitrate
  growth inhibition in words: completely inhibited
  A600 (growth): 0.043
